Laboratory results as given in ChEMBL document CHEMBL5728225, “Modulators of P97 AAA ATPase activity” (2021).
“And” between values parts separate entries of the source, which are not always exact repeats. Identical values can stand only once.

Experiment: Biomol Green Assay: Biomol Green (Enzo) […] formed from a biochemical reaction. Because of its high sensitivity, the assay is suitable for monitoring enzyme activities at very early substrate conversions requiring very low amount of enzymes.

SMILES	IC50
Cc1cc(OCc2nnc(CC3CCCC3)n2-c2cccnc2)ccc1C#CCNC(=O)OC(C)(C)C	260 nM
Cc1cc(OCc2nnc(SC3C=CCCC3)n2-c2cccnc2)ccc1C#CCOC(=O)NN1CCN(C)CC1 (stereo not drawn)	25 nM and 15 nM
Cc1cc(OCc2cnc(SC3C=CCCC3)n2-c2cccnc2)ccc1C#CCOC(=O)NCCN1CCN(C(C)C)CC1 (stereo not drawn)	26 nM
